Common to all, as to type: functional
The subject of test [1] is Escherichia coli. Kind of test: Antibacterial activity against Escherichia coli NIHJJC2 after 20 hrs by agar dilution method. (In general: In agar dilution, organisms are placed on agar that contains the substance at set levels.)
The next test relates to Moraxella catarrhalis. Kind of test: Antibacterial activity against Moraxella catarrhalis ATCC 43617 after 20 hrs by agar dilution method. The conditions noted are these: ATCC 43617, 20 h.
The test system of test [2] is Haemophilus influenzae. Kind of test: Antibacterial activity against Haemophilus influenzae ATCC 49766 after 20 hrs by agar dilution method. The settings on record: ATCC 49766, 20 h.
In test [3] the test system is Haemophilus influenzae. Kind of test: Antibacterial activity against beta-lactamase negative ampicillin resistant Haemophilus influenzae SR-11435 after 20 hrs by agar dilution method.
Test [4] has as its system Enterobacter cloacae. Kind of test: Antibacterial activity against Enterobacter cloacae ATCC 13047 after 20 hrs by agar dilution method. The settings on record: ATCC 13047, 20 h.
For the next test, the system named is Staphylococcus aureus. Kind of test: Antibacterial activity against […] Staphylococcus aureus SMITH after 20 hrs by agar dilution method.
For test [5], the system named is Pseudomonas aeruginosa. Kind of test: Antibacterial activity against Pseudomonas aeruginosa SR24 after 20 hrs by agar dilution method.
Test [6] deals with Pseudomonas aeruginosa. Kind of test: Antibacterial activity against AmpC hyperproducing Pseudomonas aeruginosa SR24-12 after 20 hrs by agar dilution method.
Test [7] deals with Enterobacter cloacae. Kind of test: Antibacterial activity against AmpC producing Enterobacter cloacae SR-4321 after 20 hrs by agar dilution method.
The test system of test [8] is Escherichia coli. Kind of test: Antibacterial activity against Toho 2 (ESBL) producing Escherichia coli SR-21003 after 20 hrs by agar dilution method.
The next test concerns Streptococcus pneumoniae. Kind of test: Antibacterial activity against penicillin resistant Streptococcus pneumoniae SR-16675 after 20 hrs by agar dilution method.
In test [9] the test system is Pseudomonas aeruginosa. Kind of test: Antibacterial activity against Imipenem resistant Pseudomonas aeruginosa SR-6554 after 20 hrs by agar dilution method.
For test [10], the system named is Pseudomonas aeruginosa. Kind of test: Antibacterial activity against Pseudomonas aeruginosa SR-5393 after 20 hrs by agar dilution method.

Experimental findings from ChEMBL document CHEMBL1149714 (2007) are described below.

In brackets after ≈: the same amount, converted by molar mass.

For `CNCCCn1ccc2c1ccc[n+]2CC1=C(C(=O)[O-])N2C(=O)[C@@H](NC(=O)/C(=N\O[C@@H](C)C(=O)O)c3nc(N)sc3C)[C@H]2SC1`, the MIC with Escherichia coli [1] was 2 µg/mL (≈ 3.05 µM); in the test with Moraxella catarrhalis, 0.5 µg/mL (≈ 0.761 µM); with Haemophilus influenzae [2], 0.125 µg/mL (≈ 0.19 µM); against Haemophilus influenzae [3], 2 µg/mL (≈ 3.05 µM); against Enterobacter cloacae [4], 4 µg/mL (≈ 6.09 µM); in the test on Staphylococcus aureus, 4 µg/mL (≈ 6.09 µM). For the same compound, the MIC in the test with Pseudomonas aeruginosa [5] is 1 µg/mL (≈ 1.52 µM); against Pseudomonas aeruginosa [6], 8 µg/mL (≈ 12.2 µM); against Enterobacter cloacae [7] it was 16 µg/mL (≈ 24.4 µM); against Escherichia coli [8] it was 32 µg/mL (≈ 48.7 µM); against Streptococcus pneumoniae, 8 µg/mL (≈ 12.2 µM); in the test on Pseudomonas aeruginosa [9] it was 64 µg/mL (≈ 97.5 µM). The compound also yielded an MIC in the test with Pseudomonas aeruginosa [10] of 4 µg/mL (≈ 6.09 µM).
On to `CNCCCn1ccc2c1ccc[n+]2CC1=C(C(=O)[O-])N2C(=O)[C@@H](NC(=O)/C(=N\O[C@H](C(=O)O)C(C)C)c3nc(N)sc3Cl)[C@H]2SC1`, for which the MIC in the test with Escherichia coli [1] turned out to be 2 µg/mL (≈ 2.84 µM); against Moraxella catarrhalis it was 0.016 µg/mL (≈ 0.0227 µM); against Haemophilus influenzae [2], 0.032 µg/mL (≈ 0.0454 µM); in the test with Haemophilus influenzae [3], 0.063 µg/mL (≈ 0.0893 µM); in the test on Enterobacter cloacae [4], 4 µg/mL (≈ 5.67 µM); with Staphylococcus aureus, 1 µg/mL (≈ 1.42 µM). In addition, the MIC against Pseudomonas aeruginosa [5] was 2 µg/mL (≈ 2.84 µM); against Pseudomonas aeruginosa [6], 8 µg/mL (≈ 11.3 µM); with Enterobacter cloacae [7], 8 µg/mL (≈ 11.3 µM); against Escherichia coli [8], 8 µg/mL (≈ 11.3 µM); in the test with Streptococcus pneumoniae it was 4 µg/mL (≈ 5.67 µM); in the test on Pseudomonas aeruginosa [9], 16 µg/mL (≈ 22.7 µM). In the test on Pseudomonas aeruginosa [10], this compound displayed an MIC of 8 µg/mL (≈ 11.3 µM).
Regarding `CNCCCn1ccc2c1ccc[n+]2CC1=C(C(=O)[O-])N2C(=O)[C@@H](NC(=O)/C(=N\O[C@@H](CO)C(=O)O)c3nc(N)sc3Cl)[C@H]2SC1`, the MIC in the test with Escherichia coli [1] came to 0.25 µg/mL (≈ 0.361 µM); against Moraxella catarrhalis, 0.032 µg/mL (≈ 0.0462 µM); with Haemophilus influenzae [2] it was 0.063 µg/mL (≈ 0.0909 µM); in the test on Haemophilus influenzae [3] it was 0.125 µg/mL (≈ 0.18 µM); against Enterobacter cloacae [4], 0.25 µg/mL (≈ 0.361 µM); against Staphylococcus aureus it was 2 µg/mL (≈ 2.89 µM). In addition, the MIC in the test on Pseudomonas aeruginosa [5] was found to be 1 µg/mL (≈ 1.44 µM); in the test with Pseudomonas aeruginosa [6] it was 4 µg/mL (≈ 5.77 µM); in the test on Enterobacter cloacae [7], 2 µg/mL (≈ 2.89 µM); in the test on Escherichia coli [8], 2 µg/mL (≈ 2.89 µM); in the test on Streptococcus pneumoniae, 8 µg/mL (≈ 11.5 µM); with Pseudomonas aeruginosa [9], 16 µg/mL (≈ 23.1 µM). Moreover, the MIC in the test with Pseudomonas aeruginosa [10] was 4 µg/mL (≈ 5.77 µM).
As for `CNCCCn1ccc2c1ccc[n+]2CC1=C(C(=O)[O-])N2C(=O)[C@@H](NC(=O)/C(=N\O[C@@H](C)C(=O)O)c3nsc(N)n3)[C@H]2SC1`, the MIC against Escherichia coli [1] came out at 0.031 µg/mL (≈ 0.0482 µM); in the test on Moraxella catarrhalis, 0.5 µg/mL (≈ 0.777 µM); with Haemophilus influenzae [2] it was 0.031 µg/mL (≈ 0.0482 µM); against Haemophilus influenzae [3] it was 0.25 µg/mL (≈ 0.388 µM); with Enterobacter cloacae [4] it was 0.25 µg/mL (≈ 0.388 µM); in the test on Staphylococcus aureus, 2 µg/mL (≈ 3.11 µM). Moreover, the MIC against Pseudomonas aeruginosa [5] is 0.5 µg/mL (≈ 0.777 µM); against Pseudomonas aeruginosa [6] it was 16 µg/mL (≈ 24.9 µM); in the test on Enterobacter cloacae [7], 8 µg/mL (≈ 12.4 µM); with Escherichia coli [8] it was 8 µg/mL (≈ 12.4 µM); with Streptococcus pneumoniae it was 4 µg/mL (≈ 6.21 µM); against Pseudomonas aeruginosa [9], 4 µg/mL (≈ 6.21 µM). Further, in the test on Pseudomonas aeruginosa [10], the MIC stood at 2 µg/mL (≈ 3.11 µM).
On to `CNCCCn1ccc2c1ccc[n+]2CC1=C(C(=O)[O-])N2C(=O)[C@@H](NC(=O)/C(=N\OC(C)(C)C(=O)O)c3nc(N)sc3Cl)[C@H]2SC1`, for which the MIC turned out to be 1 µg/mL (≈ 1.45 µM) against Escherichia coli [1]; 0.008 µg/mL (≈ 0.0116 µM) in the test on Moraxella catarrhalis; 0.032 µg/mL (≈ 0.0463 µM) against Haemophilus influenzae [2]; 0.063 µg/mL (≈ 0.0911 µM) with Haemophilus influenzae [3]; 2 µg/mL (≈ 2.89 µM) in the test on Enterobacter cloacae [4]; 2 µg/mL (≈ 2.89 µM) against Staphylococcus aureus. Moreover, the MIC with Pseudomonas aeruginosa [5] was found to be 2 µg/mL (≈ 2.89 µM); against Pseudomonas aeruginosa [6], 8 µg/mL (≈ 11.6 µM); in the test with Enterobacter cloacae [7], 4 µg/mL (≈ 5.79 µM); with Escherichia coli [8] it was 8 µg/mL (≈ 11.6 µM); in the test on Streptococcus pneumoniae, 4 µg/mL (≈ 5.79 µM); with Pseudomonas aeruginosa [9], 16 µg/mL (≈ 23.1 µM). Also, in the test on Pseudomonas aeruginosa [10], the MIC turned out to be 4 µg/mL (≈ 5.79 µM).
Turning to `CNCCCn1ccc2c1ccc[n+]2CC1=C(C(=O)[O-])N2C(=O)[C@@H](NC(=O)/C(=N\OC3(C(=O)O)CCC3)c3nc(N)sc3Cl)[C@H]2SC1`, the MIC with Escherichia coli [1] is 1 µg/mL (≈ 1.42 µM); in the test with Moraxella catarrhalis, 0.016 µg/mL (≈ 0.0228 µM); against Haemophilus influenzae [2], 0.032 µg/mL (≈ 0.0455 µM); in the test on Haemophilus influenzae [3], 0.063 µg/mL (≈ 0.0896 µM); in the test with Enterobacter cloacae [4] it was 2 µg/mL (≈ 2.84 µM); in the test with Staphylococcus aureus, 1 µg/mL (≈ 1.42 µM). Besides, the MIC came out at 1 µg/mL (≈ 1.42 µM) against Pseudomonas aeruginosa [5]; 4 µg/mL (≈ 5.69 µM) against Pseudomonas aeruginosa [6]; 4 µg/mL (≈ 5.69 µM) against Enterobacter cloacae [7]; 4 µg/mL (≈ 5.69 µM) with Escherichia coli [8]; 4 µg/mL (≈ 5.69 µM) in the test on Streptococcus pneumoniae; 16 µg/mL (≈ 22.8 µM) against Pseudomonas aeruginosa [9]. The compound further had an MIC with Pseudomonas aeruginosa [10] of 4 µg/mL (≈ 5.69 µM).
For the compound `CNCCCn1ccc2c1ccc[n+]2CC1=C(C(=O)[O-])N2C(=O)[C@@H](NC(=O)/C(=N\OCC(=O)O)c3nc(N)sc3Cl)[C@H]2SC1`, the MIC in the test with Escherichia coli [1] is 0.25 µg/mL (≈ 0.377 µM); against Moraxella catarrhalis, 0.016 µg/mL (≈ 0.0241 µM); with Haemophilus influenzae [2] it was 0.032 µg/mL (≈ 0.0483 µM); against Haemophilus influenzae [3], 0.125 µg/mL (≈ 0.188 µM); in the test on Enterobacter cloacae [4], 0.25 µg/mL (≈ 0.377 µM); against Staphylococcus aureus, 2 µg/mL (≈ 3.02 µM). Besides, the MIC is 0.5 µg/mL (≈ 0.754 µM) against Pseudomonas aeruginosa [5]; 8 µg/mL (≈ 12.1 µM) against Pseudomonas aeruginosa [6]; 8 µg/mL (≈ 12.1 µM) in the test on Enterobacter cloacae [7]; 2 µg/mL (≈ 3.02 µM) with Escherichia coli [8]; 2 µg/mL (≈ 3.02 µM) with Streptococcus pneumoniae; 8 µg/mL (≈ 12.1 µM) in the test with Pseudomonas aeruginosa [9]. This compound also returned an MIC with Pseudomonas aeruginosa [10] of 2 µg/mL (≈ 3.02 µM).
For the compound `CNCCCn1ccc2c1ccc[n+]2CC1=C(C(=O)[O-])N2C(=O)[C@@H](NC(=O)/C(=N\OC(C)(C)C(=O)O)c3csc(N)n3)[C@H]2SC1`, the MIC is 0.25 µg/mL (≈ 0.381 µM) against Escherichia coli [1]; 1 µg/mL (≈ 1.52 µM) against Enterobacter cloacae [4]; 1 µg/mL (≈ 1.52 µM) with Pseudomonas aeruginosa [5]; 32 µg/mL (≈ 48.7 µM) with Pseudomonas aeruginosa [6]; 16 µg/mL (≈ 24.4 µM) in the test with Enterobacter cloacae [7]; 2 µg/mL (≈ 3.05 µM) against Escherichia coli [8]. In addition, the results for the MIC in the test on Pseudomonas aeruginosa [9] and in the test on Pseudomonas aeruginosa [10] were 16 µg/mL (≈ 24.4 µM) and 2 µg/mL (≈ 3.05 µM), respectively.
